Source: ChEMBL document CHEMBL4038299, “Nitroimidazoles: Molecular Fireworks That Combat a Broad Spectrum of Infectious Diseases” (J Med Chem, 2017)
Converted amounts (≈) assume the structure as drawn.

Experiments:
Entamoeba histolytica = assay: Antiparasitic activity against Entamoeba histolytica clinical isolate after 24 hrs under anaerobic cinditions; assay type: functional
Trichomonas vaginalis [1] = assay: Antiparasitic activity against Trichomonas vaginalis BRIS/92/STDL/B7268 clinical isolate after 48 hrs under anaerobic condition; assay type: functional
Trichomonas vaginalis [2] = assay: Antiparasitic activity against Trichomonas vaginalis clinical isolate after 48 hrs under aerobic conditions by inverted phase contrast microscopic analysis; assay type: functional
Giardia intestinalis [3] = assay: In vivo antiparasitic activity against Giardia lamblia infected in human at 250 mg administered 2 to 3 times per day daily for 5 to 10 days; assay type: functional, Giardia duodenalis
Giardia intestinalis [4] = assay: In vivo antiparasitic activity against Giardia lamblia infected in human at 2000 to 2400 mg administered as single dose; assay type: functional, Giardia duodenalis
[5] = Drug excretion in po dosed human feces; assay type: ADME, organism-based; conditions: in vivo
[6] = Drug excretion in po dosed human watery feces; assay type: ADME, organism-based; conditions: in vivo
Clostridioides difficile = assay: Antibacterial activity against Clostridium difficile; assay type: functional
Helicobacter pylori [7] = assay: Antibacterial activity against susceptible Helicobacter pylori; assay type: functional
Helicobacter pylori [8] = assay: Antibacterial activity against resistant Helicobacter pylori; assay type: functional
Helicobacter pylori [9] = assay: Antibacterial activity against Helicobacter pylori after 72 hrs by E-test; assay type: functional
Leishmania donovani [10] = assay: Antileishmanial activity against Leishmania donovani LV9 amastigotes infected in mouse peritoneal macrophages after 72 hrs; assay type: functional; conditions: LV9, 72 h
Bacteroides fragilis = assay: Antibacterial activity against Bacteroides fragilis ATCC 23745 after 24 hrs; assay type: functional; conditions: ATCC 23745, 24 h
Giardia intestinalis [11] = assay: In vivo antiparasitic activity against Giardia lamblia infected in human assessed as median efficacy at 2 g administered in adults as single dose; assay type: functional, Giardia duodenalis
Giardia intestinalis [12] = assay: In vivo antiparasitic activity against Giardia lamblia infected in human assessed as median efficacy at 30 mg/kg administered in children as single dose; assay type: functional, Giardia duodenalis
Leishmania donovani [13] = assay: Antileishmanial activity against Leishmania donovani LV9 amastigotes infected in BALB/c mouse peritoneal macrophages after 72 hrs by resazurin-based fluorescence assay; assay type: functional; conditions: LV9, 72 h
Leishmania donovani [14] = assay: Antileishmanial activity against Leishmania donovani LV9 promastigotes after 72 hrs by resazurin-based fluorescence assay; assay type: functional; conditions: LV9, 72 h
[15] = system: Mycobacterium tuberculosis; assay: Antimycobacterial activity against Mycobacterium tuberculosis; assay type: functional
[16] = Half life in plasma (unknown origin); assay type: ADME, cell-free
Helicobacter pylori [17] = assay: In vivo antibacterial activity against Helicobacter pylori infected in human administered bid for 7 days measured after 30 days post start of the treatment by endoscopic analysis; assay type: functional
Leishmania donovani [18] = assay: Antileishmanial activity against Leishmania donovani HU3 infected in po dosed BALB/c mouse administered for 5 consecutive days; assay type: functional
Trypanosoma cruzi [19] = assay: Antiparasitic activity against Trypanosoma cruzi infected in human assessed as cure rate under chronic condition; assay type: functional
Trypanosoma cruzi [20] = assay: Antiparasitic activity against Trypanosoma cruzi infected in human assessed as cure rate under acute condition; assay type: functional
Leishmania donovani [21] = assay: Antileishmanial activity against Leishmania donovani LV9 amastigotes infected in po dosed BALB/c mouse assessed as reduction in parasite burden dosed on day 7 post-infection administered bid for 5 to 10 days; assay type: functional
Leishmania donovani [22] = assay: Antileishmanial activity against Leishmania donovani LV9 amastigotes infected in BALB/c mouse assessed as reduction in parasite burden at 200 mg/kg, po administered qd for 5 days; assay type: functional; conditions: 120 h

Cc1ncc([N+](=O)[O-])n1CCO [METRONIDAZOLE]
MIC (Entamoeba histolytica): 12.5 to 25 µM (≈ 2.14 to 4.28 µg/mL) | MLC (Trichomonas vaginalis [1]): 4.25 µg/mL (≈ 24.8 µM) | MLC (Trichomonas vaginalis [2]): 2618 µM (≈ 448 µg/mL) | Efficacy (Giardia intestinalis [3]): 88% | Efficacy (Giardia intestinalis [4]): 48% | Drug excretion [5]: 1.2 µg/g | Drug excretion [6]: 9.3 µg/g | MIC90 (Clostridioides difficile): 0.2 to 2 µg/mL (≈ 1.17 to 11.7 µM) | MIC (Helicobacter pylori [7]): 0.25 to 2 µg/mL (≈ 1.46 to 11.7 µM) | MIC (Helicobacter pylori [8]): > 8 µg/mL | MIC (Helicobacter pylori [9]): ≥ 256 µg/mL

Cn1c([N+](=O)[O-])cnc1COc1ccc(S(C)(=O)=O)cc1 [FEXINIDAZOLE SULFONE]
EC50 (Leishmania donovani [10]): 5300 nM

Cc1ncc([N+](=O)[O-])n1CC(C)O (centres undefined) [SECNIDAZOLE]
MIC (Bacteroides fragilis): 0.8 to 3.7 µM (≈ 0.148 to 0.685 µg/mL) | Efficacy (Giardia intestinalis [11]): 80 - 100% | Efficacy (Giardia intestinalis [12]): 80 - 100%

O=[N+]([O-])c1cn2c(n1)OC[C@H](OCc1ccc(OC(F)(F)F)cc1)C2
EC50 (Leishmania donovani [13]): 930 nM | EC50 (Leishmania donovani [14]): 160 nM | MIC [15]: > 100 µM

CCS(=O)(=O)CCn1c([N+](=O)[O-])cnc1C [TINIDAZOLE]
MIC (Bacteroides fragilis): 0.8 to 3.7 µM (≈ 0.198 to 0.915 µg/mL) | Efficacy (Giardia intestinalis [11]): 92% | half-life [16]: 12 to 14 h | MLC (Trichomonas vaginalis [2]): 1015 µM (≈ 251 µg/mL) | Activity (Helicobacter pylori [17]): >90%

C[C@]1(COc2ccc(OC(F)(F)F)cc2)Cn2cc([N+](=O)[O-])nc2O1
ED90 (Leishmania donovani [18]): 3.7 mg/kg

CCCCCCCCCCCCCCCCOP(=O)([O-])OCC[N+](C)(C)C [MILTEFOSINE]
EC50 (Leishmania donovani [10]): 3300 nM

O=C(Cn1ccnc1[N+](=O)[O-])NCc1ccccc1 [BENZNIDAZOLE]
Activity (Trypanosoma cruzi [19]): 8% | Activity (Trypanosoma cruzi [20]): 76%

C[C@]1(COc2ccc(N3CCC(Oc4ccc(OC(F)(F)F)cc4)CC3)cc2)Cn2cc([N+](=O)[O-])nc2O1 [DELAMANID]
EC50 (Leishmania donovani [10]): 87 nM | ED50 (Leishmania donovani [21]): 7.3 mg/kg | ED90 (Leishmania donovani [21]): 21.5 mg/kg

CSc1ccc(OCc2ncc([N+](=O)[O-])n2C)cc1 [FEXINIDAZOLE]
inhibition in vivo at 200 mg/kg (Leishmania donovani [22]): 98%

Cc1ncc([N+](=O)[O-])n1CC(O)CCl (centres undefined) [ORNIDAZOLE]
MIC (Bacteroides fragilis): 0.8 to 3.7 µM (≈ 0.176 to 0.813 µg/mL) | Efficacy (Giardia intestinalis [11]): 92 - 100%

Cc1ncc([N+](=O)[O-])n1CCc1ccncc1 [PANIDAZOLE]
MIC (Bacteroides fragilis): 0.8 to 3.7 µM (≈ 0.186 to 0.859 µg/mL)
